Source: the NIST ThermoML archive (doi:10.1016/j.jct.2015.07.014)

Test: xn = mol fraction of the nth substance listed
Details: Fluid (supercritical or subcritical phases), Buoyancy - hydrostatic balance with magnetic suspension - one sinker

N#N [nitrogen] + O=C=O
mass density [kg/m3]
Details	x1 = 0.95	x1 = 0.99
298.11 K, 30854 kPa	318.784	–
298.15 K, 30889 kPa	–	306.308
298.18 K, 10974 kPa	128.536	–
298.18 K, 26965 kPa	–	276.485
298.18 K, 28960 kPa	304.08	291.991
298.19 K, 10975 kPa	–	124.2
298.19 K, 12974 kPa	151.108	–
298.19 K, 12977 kPa	–	145.801
298.19 K, 14973 kPa	173.056	–
298.19 K, 14975 kPa	–	166.746
298.19 K, 16968 kPa	194.247	–
298.19 K, 16973 kPa	–	186.99
298.19 K, 18971 kPa	214.733	206.482
298.19 K, 20971 kPa	–	225.196
298.19 K, 20972 kPa	234.34	–
298.19 K, 22968 kPa	253.055	–
298.19 K, 22969 kPa	–	243.092
298.19 K, 24966 kPa	270.906	–
298.19 K, 24967 kPa	–	260.186
298.19 K, 26964 kPa	287.919	–
323.18 K, 10979 kPa	116.684	–
323.18 K, 14973 kPa	156.725	–
323.18 K, 28962 kPa	–	266.975
323.18 K, 30957 kPa	291.768	280.954
323.19 K, 12977 kPa	136.963	–
323.19 K, 14974 kPa	–	151.425
323.19 K, 20974 kPa	212.443	–
323.19 K, 22968 kPa	229.628	–
323.19 K, 24967 kPa	246.174	–
323.19 K, 24968 kPa	–	237.145
323.19 K, 26966 kPa	–	252.374
323.19 K, 28961 kPa	277.225	–
323.2 K, 12978 kPa	–	132.477
323.2 K, 16971 kPa	175.903	–
323.2 K, 16973 kPa	–	169.822
323.2 K, 18972 kPa	194.494	–
323.2 K, 18975 kPa	–	187.629
323.2 K, 20974 kPa	–	204.784
323.2 K, 22971 kPa	–	221.285
323.2 K, 26964 kPa	262.031	–
323.21 K, 10980 kPa	–	112.998
348.15 K, 14974 kPa	143.613	–
348.16 K, 12976 kPa	125.56	–
348.16 K, 26965 kPa	–	232.594
348.16 K, 28963 kPa	–	246.335
348.17 K, 10975 kPa	107.02	103.828
348.18 K, 12974 kPa	–	121.664
348.18 K, 20972 kPa	–	188.207
348.18 K, 24966 kPa	–	218.313
348.18 K, 30959 kPa	–	259.551
348.19 K, 16972 kPa	161.157	–
348.19 K, 18968 kPa	–	172.299
348.19 K, 30958 kPa	268.893	–
348.2 K, 14978 kPa	–	139.081
348.2 K, 22973 kPa	–	203.544
348.2 K, 26965 kPa	240.883	–
348.21 K, 16969 kPa	–	155.902
348.21 K, 22970 kPa	210.667	–
348.21 K, 24968 kPa	226.054	–
348.22 K, 18976 kPa	178.236	–
348.23 K, 20969 kPa	194.689	–
348.24 K, 28961 kPa	255.123	–
373.11 K, 14975 kPa	132.811	–
373.14 K, 10975 kPa	99.052	–
373.14 K, 10978 kPa	–	96.257
373.14 K, 24968 kPa	–	202.615
373.14 K, 26966 kPa	–	216.025
373.16 K, 20970 kPa	180.142	–
373.16 K, 28962 kPa	–	228.969
373.17 K, 12975 kPa	116.113	–
373.17 K, 12978 kPa	–	112.737
373.17 K, 30957 kPa	249.734	–
373.18 K, 14973 kPa	–	128.781
373.18 K, 16969 kPa	148.99	–
373.19 K, 18968 kPa	164.767	–
373.19 K, 22970 kPa	194.991	–
373.19 K, 24968 kPa	209.378	–
373.19 K, 26966 kPa	223.295	–
373.19 K, 30958 kPa	–	241.48
373.2 K, 16976 kPa	–	144.455
373.2 K, 18972 kPa	–	159.653
373.2 K, 22969 kPa	–	188.731
373.2 K, 28961 kPa	236.723	–
373.21 K, 20974 kPa	–	174.438
398.12 K, 10979 kPa	92.339	–
398.15 K, 16976 kPa	–	134.736
398.17 K, 10981 kPa	–	89.797
398.17 K, 26965 kPa	–	201.89
398.17 K, 30957 kPa	–	226.029
398.17 K, 30958 kPa	233.41	–
398.18 K, 28962 kPa	221.089	–
398.18 K, 28963 kPa	–	214.146
398.19 K, 14974 kPa	–	120.089
398.19 K, 20968 kPa	–	162.734
398.2 K, 12973 kPa	108.135	–
398.2 K, 14975 kPa	123.655	–
398.2 K, 18973 kPa	–	148.923
398.2 K, 22966 kPa	–	176.162
398.2 K, 24970 kPa	–	189.239
398.21 K, 18973 kPa	153.504	–
398.21 K, 22970 kPa	181.754	–
398.21 K, 24969 kPa	195.274	–
398.21 K, 26967 kPa	208.381	–
398.22 K, 12974 kPa	–	105.084
398.22 K, 20969 kPa	167.809	–
398.23 K, 16974 kPa	138.767	–
423.11 K, 14972 kPa	–	112.628
423.13 K, 24967 kPa	183.194	–
423.13 K, 26965 kPa	195.591	–
423.13 K, 28962 kPa	207.636	–
423.13 K, 30956 kPa	219.326	–
423.14 K, 22965 kPa	170.413	–
423.16 K, 16970 kPa	–	126.322
423.16 K, 18970 kPa	143.837	–
423.16 K, 20971 kPa	157.318	–
423.17 K, 12979 kPa	–	98.597
423.17 K, 18968 kPa	–	139.677
423.18 K, 10978 kPa	86.517	–
423.18 K, 10979 kPa	–	84.203
423.18 K, 12971 kPa	101.311	–
423.18 K, 14973 kPa	115.841	–
423.18 K, 16967 kPa	129.977	–
423.18 K, 20972 kPa	–	152.731
423.18 K, 30957 kPa	–	212.642
423.19 K, 22973 kPa	–	165.419
423.21 K, 24968 kPa	–	177.709
423.21 K, 28961 kPa	–	201.322
423.22 K, 26966 kPa	–	189.691
